Source: patent US20130289019A1, “METHODS OF TREATING BEHAVIORIAL AND/OR MENTAL DISORDERS” (AMAZING GRACE, INC., priority 2012, published 2013)
Entries after “also recorded” stand apart in the source; their conditions may differ. Marks after values point to notes of the source that are not given here.

Experiments:
[1] = tested on: glutamatergic NMDA receptor in the NAc; experiment: NMDA receptor antagonists injected into the NAc (Rada et al. 2003); format: in vivo; conditions: Applicant's data (Rada et al. 2003)
Description: In the NAc, M2/M4 receptors are also located on glutamate-containing axonal terminals that originate from neurons located in corticolimbic and thalamic regions involved in depression and anxiety.

[2] = tested on: NAcShell of rats (ICSS reward threshold); experiment: discrete trial current-threshold intracranial self-stimulation (ICSS), drugs infused into NAcShell; format: in vivo, rat; conditions: for ICSS threshold change: vs baseline, N=2; for ICSS threshold, effect in words: infused into the NAcShell during the ICSS procedure
Description: FIG. 2 is a graph illustrating the effect of antagonism of M1 mAChR and agonism of mAChR in the nucleus accumbens shell (NAcShell). The discrete trial current-threshold intracranial self-stimulation paradigm was used to assess the effect of cholinergic drugs infused directly into the NAcShell on reward, independent of performance. See below and Markou and Koob (Neuropsychopharmacology. 1991 January; 4(1):17-26) for detailed description of the paradigm. Thresholds measured in a rat vary little in the 4 pre-drug days (<7% of the mean or baseline). The non-selective mAChR agonist arecoline dose-dependently elevates threshold (0.01 M, +11%; 1.0 M, +57.5%, N=2). Pirenzepine dihydrochloride (Sigma-Aldrich, Saint Louis, Mo.), a selective M1 mAChR antagonist, dose-dependently lowers threshold (0.1 mM, −7%; 100 mM, […], N=2). The drugs were infused into the NAcShell at a steady rate by reversed microdialysis over the hour required to complete threshold testing.
Anhedonia may be assessed by applying the intracranial self-stimulation (ICSS) paradigm. The ICSS may be used to assess anhedonia, reward, hedonic capacity, and motivation in animals. In this paradigm, a rat performs an operant task (e.g. pressing a bar) to receive rewarding electrical stimulation through electrodes implanted into specific areas of the brain, including the lateral hypothalamus (LH), medial forebrain bundle (MFB), ventral tegmental area containing dopamine neurons (VTA), the nucleus accumbens shell or nucleus accumbens medial core, ventral pallidum, orbitofronal cortex (OPFC), medial frontal cortex (MPFC), cingulate cortex, lateral bed nucleus of the stria terminalis of the amygdala (BNST), mediodorsal thalamus (mdTham), lateral septum, the dorsal raphe containing serotonin neurons, the locus coeruleus containing norepinephrine neurons (see FIG. 1). As noted above, these regions supporting ICSS form an interconnected network commonly referred to as the “brain reward circuitry.”
A skilled artisan would recognize that variations of the ICSS paradigm may be used. For example, one of the most commonly used ICSS procedures, which has been experimentally validated and has shown to be reward-selective, is the discrete-trial current-intensity threshold procedure. This procedure directly and reliably assesses an animal's sensitivity to rewards, hedonic capacity, and motivation, independent of performance, i.e., ability to move (for detailed procedures see Markou and Koob, Neuropsychopharmacology. 1991 January; 4(1):17-26). The discrete trial current-intensity threshold ICSS procedure provides unique ways to investigate the anatomical and neurochemical basis of reward and motivation and is an important tool for assessing of the reward-facilitating or anhedonic effects of various drugs or medications.
Lowering of ICSS thresholds indicates facilitation of brain stimulation reward, whereas elevation in ICSS threshold indicates diminished reward value of the stimulation and thus an anhedonic state. Acute administration of most drugs of abuse, including cocaine, amphetamine, nicotine, morphine, and heroin, lower ICSS thresholds in experimental animals, logically because of their rewarding values. By contrast, withdrawal from chronic administration of these drugs elevates ICSS thresholds, indicating an anhedonic state that resembles the negative affective and motivational state of the drug withdrawal syndrome experienced by humans. Elevated ICSS threshold also occurs in animal models of depression. Such elevation in ICSS threshold reflects decreased sensitivity to rewarding stimuli, decreased hedonic capacity or motivation, and/or an aversive and dysphoric affective state of the animal model of depression. Importantly, administration of antidepressants normalizes or lowers ICSS threshold in such animals, indicating a reversal of reward and motivational deficits.
FIG. 2 is a graph illustrating the effect of antagonism of M1 mAChR and agonism of mAChR in the NAcShell. […]

[3] = tested on: rats (NAcShell injection); experiment: Porsolt swim test after injection of mAChR agonists and antagonists in the NAcShell; format: in vivo, rat; conditions: for Drug (sec), mean swimming time / Percent change of swimming time vs Ringer / Time diff (sec), drug vs Ringer: 600 sec swim test; for immobility in the swim test, effect in words: infusion into the NAcShell
Description: FIG. 3 is a graph illustrating swimming time following injections of cholinergic drugs in NAc (black bars), compared to Ringer (white bars). (A) Local injection of arecoline, a muscarinic agonist, decreased swim time; the animals quickly gave up (40 μg, −41%, n=8, t=3.53, p<0.01; and 80 μg, −66%, n=6, t=4.12, p<0.01). (B) Pirenzepine, an M1 antagonist, increased swimming escape attempts in the manner of an antidepressant, but note this is a local injection (17.5 μg, n=8, +39%, t=3.63, p<0.01; 35 μg, +40%, n=9, t=7.15, p<0.001). […] (D) Local gallamine, an M2 antagonist, decreased swim time (0.13 μg/side, −21%, n=7, t=3.72, p<0.01; 0.44 μg/side, −37%, n=8, t=2.95, p<0.05; 0.88 μg/side, −36%, n=7, t=4.64, p<0.01). Swimming time following Ringer is normalized to 100%, with each bar representing the mean of the normalized responses across subjects. Swimming time following a drug injection is expressed as a percentage of the swimming time following vehicle injection on a different day. Significant changes in the within-subject response to drug injections are indicated with asterisks (* p<0.05, ** p<0.01, *** p<0.001).
The Porsolt swim test is an animal model of depression widely used as a screen for drugs with potential antidepressant effects in humans and for elucidating the pharmacological mechanisms of action of antidepressant medications. For example, the following procedure may be used:
On the first day of this test (day 1), a rodent (typically a rat) is placed in a cylindrical water tank for 15 min. Then after 24 hours (day 2) and 48 hours (day 3), drug and Ringer are administered to the animal in counterbalanced order. Immediately following each injection, the animal is placed in the swim test for 10 min. The length of time it swims during the swim tests is recorded. “Swimming” is defined by escape behaviors (i.e. diving, rigorous paddling with all four legs, circling the tank, and clambering at the tank walls). ‘Immobility’ was scored as floating and treading water just enough to keep the nose above water. Typically, after the first swimming session, animals become behaviorally depressed as shown by swimming less on later test days (day 2 or 3). […] Antidepressants increase swimming without affecting locomotor activity, whereas non-antidepressant drugs such as certain psychostimulants may also decrease immobility, but also increase locomotor activity in the open field test. Therefore, to screen a potential antidepressant, the swim test is typically followed by test for hyperactivity in the open field.
Rats were placed in the 600 sec (10 min) swim test following injections of drugs in the NAcShell. When not swimming, rats floated or made minimal forepaw movements to keep their noses above water. Each rat received one drug counterbalanced with Ringer on a separate day. The shorter control swim times for the gallamine group, relative to groups that received other drugs, may have been due to a seasonal difference. Control injections, shown in the last line, were made 2 mm dorsal to the accumbens (Pirenzepine Ctrl). Asterisks indicate significant difference between drug and Ringer (* p<0.05; ** p<0.01; *** p<0.001).

[4] = tested on: rats (NAcShell injection); experiment: locomotor activity in a photocell cage after drug injection in the NAcShell; format: in vivo, rat; conditions: 10 min following injection in NAcShell; arecoline 40 μg, pirenzepine 35 μg, scopolamine 1 μg, gallamine 0.88 μg
Description: FIG. 4 is a graph illustrating the effects of cholinergic drugs on locomotor activity in a photocell cage. Activity in the 10 min following drug injection in the NAcShell (black bars) is expressed as a percentage of control injections normalized to 100% (white bars).
FIG. 4 illustrates the effects of cholinergic drugs on locomotor activity in a photocell cage. Activity in the 10 min following drug injection in the NAc (black bars) is expressed as a percentage of control injections normalized to 100% (white bars).

[5] = tested on: extracellular ACh in NAcShell; experiment: ACh efflux in NAcShell, infusion by reverse dialysis in freely moving rats; format: in vivo, rat
Description: To determine if the M2 drugs act presynaptically on autoreceptors controlling ACh release, freely moving rats received infusions of an M2 agonist or antagonist in the NAcShell for 20 min by reverse dialysis while extracellular ACh was measured.
To determine if the M2 drugs act presynaptically on autoreceptors controlling ACh release, freely moving rats received infusions of an M2 agonist or antagonist in the NAc for 20 min by reverse dialysis while extracellular ACh was measured.

[6] = tested on: patients with major depression and bipolar disorder; conditions: cited from earlier work
[7] = tested on: NMDA receptor (depressed humans); conditions: human trials (Zarate et al. 2006); cited from earlier work
[8] = 17.5 μg/side, control injections 2 mm dorsal to the accumbens

With `NC(CCCP(=O)(O)O)C(=O)O` (stereo not shown) [AP-5] the “effect on depression, in words” value [1] was “alleviate depression”.

For `COC(=O)C1=CCCN(C)C1` [Arecholine], the ICSS threshold change ([2]; arecoline 0.01 M infused into NAcShell by reversed microdialysis over 1 h) was “+11%”, the ICSS threshold change ([2]; arecoline 1.0 M infused into NAcShell by reversed microdialysis over 1 h) was “+57.5%” and the “ICSS threshold, effect in words” value [2] was “dose-dependently increases ICSS threshold”. For the same compound, the “Drug (sec), mean swimming time” value ([3]; 40.0 μg/side in NAcShell) was 235 ± 17** sec, the “Percent change of swimming time vs Ringer” value (“Percent change” for short) ([3]; 40.0 μg/side in NAcShell) was −41% and the “Time diff (sec), drug vs Ringer” value ([3]; 40.0 μg/side in NAcShell) was -162 s. For the same compound, the “Percent change” value ([3]; 40.0 μg/side in NAcShell, listed as arecoline) was −41%, the “Drug (sec), mean swimming time” value ([3]; 80.0 μg/side in NAcShell) was 109 ± 34** sec and the “Percent change” value ([3]; 80.0 μg/side in NAcShell) was −66%. The “Time diff (sec), drug vs Ringer” value ([3]; 80.0 μg/side in NAcShell) was -209 s, the “Percent change” value ([3]; 80.0 μg/side in NAcShell, listed as arecoline) was −66% and the “locomotor activity vs Ringer, in words” value [4] was “significantly decreased”.

In the case of `CN1CCN(CC(=O)N2c3ccccc3C(=O)Nc3cccnc32)CC1` [Pirenzepine], the “ICSS threshold, effect in words” value [2] is reported as “dose-dependently lowers ICSS threshold”, the ICSS threshold change ([2]; pirenzepine 0.1 mM infused into NAcShell by reversed microdialysis over 1 h) is reported as −7% and the ICSS threshold change ([2]; pirenzepine 100 mM infused into NAcShell by reversed microdialysis over 1 h) is reported as 14%. For the same compound, the “Drug (sec), mean swimming time” value ([3]; 17.5 μg/side in NAcShell) was 480 ± 38** sec, the “Time diff (sec), drug vs Ringer” value ([3]; 17.5 μg/side in NAcShell) was “+134 sec” and the “Drug (sec), mean swimming time” value [3, 8] was 301 ± 34 s. The “Percent change” value [3, 8] was −10%, the “Time diff (sec), drug vs Ringer” value [3, 8] was -36 s and the “Drug (sec), mean swimming time” value ([3]; 35.0 μg/side in NAcShell) was 412 ± 26*** sec. The “Time diff (sec), drug vs Ringer” value ([3]; 35.0 μg/side in NAcShell) was “+117 sec”, the “immobility in the swim test, effect in words” value [3] was “decreases immobility” and the “locomotor activity vs Ringer, in words” value [4] was “not significantly different from Ringer; also recorded: without altering activity in the open field”.

In the case of `CN1[C@@H]2C[C@@H](OC(=O)[C@H](CO)c3ccccc3)C[C@H]1[C@@H]1O[C@@H]12` [Scopolamine], the “Drug (sec), mean swimming time” value ([3]; 0.5 μg/side in NAcShell) is reported as 306 ± 44 s, the “Percent change” value ([3]; 0.5 μg/side in NAcShell) is reported as −12% and the “Time diff (sec), drug vs Ringer” value ([3]; 0.5 μg/side in NAcShell) is reported as -44 s. For the same compound, the “Percent change” value ([3]; 0.5 μg/side in NAcShell, listed as scopolamine) was “N.S”, the “Drug (sec), mean swimming time” value ([3]; 1.0 μg/side in NAcShell) was 541 ± 13*** sec and the “Percent change” value ([3]; 1.0 μg/side in NAcShell) was “+50%”. The “Time diff (sec), drug vs Ringer” value ([3]; 1.0 μg/side in NAcShell) was “+181 sec”, the “Percent change” value ([3]; 1.0 μg/side in NAcShell, listed as scopolamine) was “+50%” and the “immobility in the swim test, effect in words” value [3] was “decreases immobility”. For the same compound, the “locomotor activity vs Ringer, in words” value [4] was “not significantly different from Ringer; also recorded: without altering activity in the open field”, the “extracellular ACh” value ([5]; 20 min infusion in NAcShell by reverse dialysis, oxotremorine 4 mM (hour following infusion), gallamine 1 mM, scopolamine 10 mM probe concentration) was 220 % of baseline and the “duration of the ACh increase (until return to baseline)” value ([5]; gallamine 1 mM: time following the infusion, scopolamine 10 mM) was “more than 100 min”. For the same compound, the “ACh level in the NAc, effect in words” value ([5]; inventor's data (Chau et al. 2001)) was “elevates ACh level in the NAc”, the “rate of remission in female patients” value ([6]; human trials) was no more than 71% and the “duration of antidepressant/anti-anxiety effects” value ([6]; one single dose) was “more than 17 days”. The “time to reduction of depression and anxiety” value ([6]; one single dose, patients with major depression and bipolar disorder) was 3 to 5 days.

In the case of `C[C@]12N[C@H](Cc3ccccc31)c1ccccc12` [dizocilpine], the “effect on depression, in words” value [1] is reported as “alleviate depression”.

In the case of `CNC1(c2ccccc2Cl)CCCCC1=O` (stereo not shown) [ketamine], the “antidepressant effect, in words” value [7] is given as “rapid antidepressant effect”.
